The text below walks through data of patent US7166612B2, “Methods for reducing platelet activation platelet aggregaton or thrombosis” (Beth Israel Deaconess Medical Center, priority 2001, dated 2007).

Assay [1] has as its system laser-induced thrombi in cremaster arterioles. Format: in vivo. The text has this: A preferred animal model involves intravital microscopy of laser-induced thrombi. The method is described by Rosen et al., 2001, Am J Pathol 158, 1613–1622, which is incorporated herein by reference. Minor variations of that method were employed as described below.
Experimental mice are pre-anesthetized and surgically prepared. A tracheal tube is placed to facilitate breathing and the jugular vein is canulated to allow for maintenance of anesthetic and introduction of compound. The cremaster muscle is then exteriorized. The muscle is affixed over a glass slide, allowing illumination from below. A steady drip of a sodium-bicarbonate buffered salt solution is maintained throughout the experiment to keep the exposed muscle moist. Blood flow in the muscle is visualized using a 40× water immersion lens and epi-illuminated with an appropriately filtered light source. Alexa 488-labeled anti-mouse CD41 antibody is injected through the jugular canulus to label platelets in vivo.
Thrombosis is initiated by damaging the vessel wall (of a 30 μm vessel) with a laser pulse from a MicroPoint LASER attached to the microscope. A LASER pulse is delivered, causing damage in an area smaller than 1 μm. The recruitment of platelets to the thrombus is then monitored by the accumulation of (activated) Alexa 488-labeled platelets at the ablation site using fluorescence microscopy, and the process is recorded digitally. The method thus permits in vivo analysis of platelet activation as measured by platelet aggregation and thrombosis.
The degree of embolization in an untreated mouse can be quantified using software for image analysis, e.g., BioQuant True Color Windows (Biometrics, Nashville, Tenn.), as described in Rosen et al., 2001, supra. The software package permits the determination of the “integrated optical density” or IOD of the thrombus.
Using quantitative intravital fluorescence videomicroscopy with high temporal resolution (111 images/second), the effect of PDE3 inhibition on the platelet recruitment into thrombi was directly observed over time. Platelets were fluorescently labeled by infusing rat-anti-mouse CD41 and Alexa 488-anti-rat IgG through a cannulated jugular vein. The cremaster microvasculature was exposed and mapped and suitable arteriole segments were selected for laser-induced injury. A series of control injuries were generated prior to infusion of the inhibitory compound. The power and the number of laser pulses required to generate each thrombus was recorded. Platelet accumulation to the thrombi following laser ablation was recorded using digital videomicroscopy. The thrombus total fluorescence in each frame of the videos was analyzed using Slidebook software for digital videomicroscopy. The pyridazinone compound was then infused. Following a 15 minute incubation, a series of experimental injuries were generated 250 μm proximal, with relationship to blood flow, of the first injury and the resultant thrombi were recorded. The power and the number of pulses required to induce the control thrombus was used to induce the experimental thrombus. The control and experimental thrombi constituting a pair were compared for statistical analysis. The total fluorescence intensity of the thrombi before and after the infusion of pyridazinone compound was recorded.
Images from a representative experiment of the recruitment of fluorescently-labeled […] platelets into a growing thrombus over time is shown in FIG. 9A.

The target in assay [2] is recombinant human PDE2 (Homo sapiens, UniProt O00408). As to the kind of experiment: phosphodiesterase inhibition, PDE2. Format: biochemical. To be noted: up to 1 μM, in words. As for the experimental part:
(§1) Intracellular cAMP generated by adenylyl cyclase in platelets is actively hydrolyzed by phosphodiesterase. […] Human platelets express PDE2, PDE3, and PDE5. Therefore, the compound was tested for its inhibitory effect on these phosphodiesterases using methods as described in Example 3.

In assay [3] the target is T1, human platelet PDE5 (Homo sapiens, UniProt O76074).
T1 construct: from tissue; host or cells: human platelets
As to the kind of experiment: phosphodiesterase inhibition, PDE5. Format: biochemical. Conditions: up to 1 μM, in words. As for the experimental part:
as §1

The mark [4] stands for this setting: listed as Pyridazinone compound.
Setting [5] is: listed as pyridazinone compound.

recombinant human PDE2, sequence (O00408 whole entry): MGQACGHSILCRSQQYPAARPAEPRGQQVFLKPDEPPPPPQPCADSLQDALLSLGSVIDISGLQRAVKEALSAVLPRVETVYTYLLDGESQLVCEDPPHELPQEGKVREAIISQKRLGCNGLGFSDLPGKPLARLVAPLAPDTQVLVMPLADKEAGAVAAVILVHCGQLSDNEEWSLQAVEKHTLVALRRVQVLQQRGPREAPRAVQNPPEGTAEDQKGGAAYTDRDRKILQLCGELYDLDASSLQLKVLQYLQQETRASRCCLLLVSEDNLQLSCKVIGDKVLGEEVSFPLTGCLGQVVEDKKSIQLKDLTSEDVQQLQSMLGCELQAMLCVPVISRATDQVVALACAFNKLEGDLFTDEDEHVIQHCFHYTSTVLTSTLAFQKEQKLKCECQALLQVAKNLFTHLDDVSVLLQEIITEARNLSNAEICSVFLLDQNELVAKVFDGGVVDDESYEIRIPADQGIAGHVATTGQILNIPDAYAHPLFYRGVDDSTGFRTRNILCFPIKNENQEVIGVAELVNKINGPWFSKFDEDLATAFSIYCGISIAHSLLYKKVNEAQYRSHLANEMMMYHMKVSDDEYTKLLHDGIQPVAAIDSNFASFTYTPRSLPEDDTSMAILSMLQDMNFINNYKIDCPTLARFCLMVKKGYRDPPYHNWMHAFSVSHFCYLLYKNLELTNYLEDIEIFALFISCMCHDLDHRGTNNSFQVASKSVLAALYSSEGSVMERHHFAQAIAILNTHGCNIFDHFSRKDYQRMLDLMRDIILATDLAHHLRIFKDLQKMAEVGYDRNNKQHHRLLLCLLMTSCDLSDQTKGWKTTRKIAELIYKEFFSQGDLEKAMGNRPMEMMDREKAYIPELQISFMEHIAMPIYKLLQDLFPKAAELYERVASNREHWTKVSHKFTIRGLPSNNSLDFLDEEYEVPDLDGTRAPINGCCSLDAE

`CC1CC(=O)NN=C1c1ccc(N)c([N+](=O)[O-])c1` (stereo not shown) [6-(4-Amino-3-nitro-phenyl)-5-methyl-4,5-dihydro-2H-pyridazin-3-one]: the stabilized platelet accumulation result in assay [1] (0.6 mg/kg (P<0.05) and 1.2 mg/kg (P<0.01), in words) is reported as “dose-dependent inhibition”. Also, the “maximum platelet accumulation compared to absence of compound” value in assay [1] (0.6 and 1.2 mg/kg, P<0.05, in words) is “statistically significant decrease”. The “time to achieve the maximum rate of platelet recruitment” value in assay [1] (after laser injury, not affected by PDE3 inhibition, 0.3 and 1.2 mg/kg) was “approximately 27 seconds”. Also, the “inhibition of recombinant human PDE2” value was “No significant inhibition” in assay [2] (setting [4]) and “little inhibition” in assay [2] (setting [5]). Further, the “inhibition of human platelet PDE5” value in assay [3] (setting [4]) was “No significant inhibition”; in assay [3] (setting [5]), “little inhibition”.
